Laboratory results published in publication PMC8071183 (International Journal of Molecular Sciences, 2021).

What was measured:
[1] = tested on: D2R; details: 1 µM haloperidol; 100 nM DA; cited from earlier work
[2] = tested on: GIRK channels; details: haloperidol at 1 µM; cited from earlier work
[3] = tested on: GIRK channels; assay: Direct GIRK channel block by haloperidol; type: cell-based; details: haloperidol at 3 µM; n = 4
[4] = molecular target: T1, WT D2R (human dopamine D2S receptor) (Homo sapiens, UniProt P14416); assay: GIRK current activation rate (kobs) vs agonist concentration (kon estimate), WT D2R; type: cell-based
T1 sequence (P14416 1-414 isoform P14416-2): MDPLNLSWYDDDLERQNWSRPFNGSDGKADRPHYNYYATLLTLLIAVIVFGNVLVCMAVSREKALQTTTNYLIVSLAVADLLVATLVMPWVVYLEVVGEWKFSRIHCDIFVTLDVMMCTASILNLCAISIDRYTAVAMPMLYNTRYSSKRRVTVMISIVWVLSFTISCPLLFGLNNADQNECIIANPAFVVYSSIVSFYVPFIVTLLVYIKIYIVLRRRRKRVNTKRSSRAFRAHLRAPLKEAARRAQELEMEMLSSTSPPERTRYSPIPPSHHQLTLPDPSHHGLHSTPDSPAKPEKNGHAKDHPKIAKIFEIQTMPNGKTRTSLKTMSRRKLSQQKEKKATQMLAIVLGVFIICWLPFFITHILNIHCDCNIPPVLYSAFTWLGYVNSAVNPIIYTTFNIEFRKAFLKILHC
Experimental: (§1) A straight line was fitted to the data over the linear range of the relation between kobs and agonist concentration and the slope was taken as a measure of kon.
(§2) Experiments were performed using a perfusion rate of 4.5 mL/min. […] Note the logarithmic y-axis. […] Data are presented as mean ± SEM.
(§3) Association rate constant estimates were derived from recordings of GIRK current activation in response to applications of various agonist concentrations. Monoexponential functions were fit to cover 80% of the current increase in response to agonist using Levenberg–Marquardt least-squares fitting in Clampfit 10, outputting the activation time constant, τact. […] However, rather than using Equation (2), koff was calculated separately from the response decay time constant upon agonist washout, τdeact, as described above.

[5] = molecular target: T1, WT D2R (human dopamine D2S receptor); assay: GIRK current deactivation following agonist washout (koff estimate), WT D2R; type: cell-based
Experimental: We obtained such estimates of koff by analyzing the washout phase following short (13 s) applications of submaximally effective agonist concentrations (see legend of Figure 2) in oocytes co-expressing WT D2R with GIRK1/4 and RGS4.
Experiments were performed using a perfusion rate of 4.5 mL/min. Data are presented as mean ± SEM.
(§4) Injected cells were incubated for another 6 days at 12 °C in modified Barth’s solution (MBS), composed of (in mM): 88 NaCl, 1 KCl, 2.4 NaHCO3, 15 HEPES, 0.33 Ca(NO3)2, 0.41 CaCl2, 0.92 MgSO4, and 2.5 sodium pyruvate, supplemented with 25 U/mL penicillin and 25 µg/mL streptomycin and adjusted to pH 7.6 with NaOH. […] For each concentration of agonist, the relative current amplitude after 60 s (when a steady-state response had been achieved) of agonist perfusion was plotted to generate the concentration-response relationships. Oocytes were selected for electrophysiology recordings based on having holding currents at −40 mV of less than 0.5 µA. Likewise, recordings where holding currents at −40 mV were greater than 0.5 µA after data acquisition at −80 mV were discarded.

[6] = molecular target: T1, WT D2R (human dopamine D2S receptor); assay: cell-based
Experimental: (§5) Following agonist application to Xenopus oocytes expressing D2R and GIRK1/4 subunits, Gβγ subunits released from activated Gi/o protein heterotrimers open the GIRK channels. […] Here, we used the GIRK current in oocytes voltage-clamped at −80 mV and superfused with a high-K^+ buffer (25 mM KCl) as a readout of agonist binding to D2R.
(§6) Thus, increasing agonist concentrations were applied consecutively to voltage-clamped oocytes expressing WT D2R, RGS4, and GIRK1/4. […] A representative trace of currents measured during p-tyramine concentration–response data acquisition is shown in Supplementary Figure S1).
as §4
(§7) Agonist concentration–response relationships were analyzed by fitting sigmoidal functions using nonlinear regression in GraphPad Prism 8 (GraphPad Software, San Diego, CA, USA).

[7] = molecular target: T2, D2R S193^5.42A (human dopamine D2S receptor mutant) (Homo sapiens, UniProt P14416, S193A); assay: cell-based; details: for EC50: GIRK activation, perfusion 1 mL/min
T2 sequence (P14416 1-414 isoform P14416-2 S193A): as the sequence (P14416 1-414 isoform P14416-2) above, with S193A counted along it
Experimental: as §5, §6, §4, §7

[8] = molecular target: T2, D2R S193^5.42A (human dopamine D2S receptor mutant); assay: cell-based; details: read-out: koff ± SEM
[9] = tested on: D2R S193^5.42A; details: cited from earlier work
[10] = molecular target: T2, D2R S193^5.42A (human dopamine D2S receptor mutant); assay: cell-based
Experimental: as §1, §2, §3
Kinetic Kds were calculated as:Kd = koff/kon(3)

| Kd ([4]; Kd = koff/kon, read-out: pKd ± SEM (kinetic Kd) (converted)) [µM] | kon ([4]; slope of linear fit of kobs vs agonist concentration, perfusion 4.5 mL/min) [M⁻¹ s⁻¹] | koff [5] [s⁻¹] | EC50 [6] [µM] | Relative efficacy (fitted Top) ([6]; WT D2R, normalized to the response evoked by 1 µM DA) | EC50 ([7]; EC50, S193^5.42A D2R) [µM] | Relative efficacy (fitted Top) ([7]; S193^5.42A D2R, normalized to the response evoked by 300 µM DA) | fold increase of DA-normalized agonist efficacy at S193^5.42A ([7]; S193^5.42A vs WT D2R) [fold] | EC50 ([7]; pEC50 ± SEM, S193^5.42A D2R) [µM] | koff [8] [s⁻¹] | Kd [10] [µM] | kon ([10]; read-out: kon ± SEM) [M⁻¹ s⁻¹] | SMILES | block of the GIRK response to DA [1] | GIRK channel block [2] | direct GIRK current block [3] [%] | decrease of affinity by alanine mutation of S193^5.42 [9] |
| --- | --- | --- | --- | --- | --- | --- | --- | --- | --- | --- | --- | --- | --- | --- | --- | --- |
|  |  |  |  |  |  |  |  |  |  |  |  | O=C(CCCN1CCC(O)(c2ccc(Cl)cc2)CC1)c1ccc(F)cc1 [haloperidol] | fully blocks | negligible | 5.9 ± 0.2 |  |
| 24.5 | 4940 ± 1.15e+06 | 0.123 ± 0.008 | 100 | 0.09 ± 0.01 | 47.9 | 0.37 ± 0.01 | 4.1 | 47.9 | 0.112 ± 0.008 | 11.7 | 9410 ± 2.34e+06 | NCCc1ccc(O)cc1 [p-tyramine] |  |  |  | less than twofold |
